According to ChEMBL document CHEMBL3272295, “Drugs derived from cannabinoids. 5. delta6a,10a-Tetrahydrocannabinol and heterocyclic analogs containing aromatic side chains” (J Med Chem, 1976):

Tests used:
[1] = tested on: Rattus norvegicus; assay: Antipsychotic activity in rat assessed as reduction of methamphetamine-induced hyperactivity at 5 mg/kg, po administered prior to methamphetamine challenge relative to vehicle-treated control; format: functional; design: scale not given: the % may be the effect or the level left
[2] = tested on: Rattus norvegicus; assay: Antianxiety activity in Long-Evans rat assessed as reduction in motor activity at 2 mg/kg, po after 2 hrs relative to vehicle-treated control; format: functional; design: scale not given: the % may be the effect or the level left
[3] = tested on: Rattus norvegicus; assay: Antianxiety activity in Long-Evans rat assessed as reduction in motor activity at 5 mg/kg, po after 2 hrs relative to vehicle-treated control; format: functional; design: scale not given: the % may be the effect or the level left
[4] = species on record: Rattus norvegicus; assay: animal or person; format: functional; details: Charles River, route oral
Description: Antidiarrheal activity in Charles River rat assessed as inhibition of castor oil-induced diarrhea by measuring protected animals at 0.5 mg/kg, po administered 1 hr prior to castor oil challenge measured after 1 hr relative to vehicle-treated control

[5] = tested on: Mus musculus; assay: Antidepressant activity in po dosed mouse assessed as potentiation of DOPA-induced effect administered 4 hrs prior to DOPA challenge; format: functional; details: read-out: MED
[6] = tested on: Mus musculus; assay: Antianxiety activity in albino BALB/cJ mouse assessed as reduction in footshock-induced fighting behavior at 5 mg/kg, po after 30 to 90 mins; format: functional; design: scale not given: the % may be the effect or the level left
[7] = tested on: Rattus norvegicus; assay: Antihypertensive activity in spontaneously hypertensive rat model assessed as reduction in blood pressure at 3 mg/kg, po after 3 hrs; format: functional; design: scale not given: the % may be the effect or the level left
[8] = Acute toxicity in po dosed mouse; format: organism-based; details: in vivo
[9] = tested on: Mus musculus; assay: Analgesic activity in po dosed mouse assessed as inhibition of acetic acid-induced writhing administered 30 mins prior to acetic acid challenge measured after 5 mins for 20 mins; format: functional
[10] = tested on: Rattus norvegicus; assay: Analgesic activity in Sprague-Dawley rat assessed as increase in pain threshold at 10 mg/kg, po after 15 to 90 mins by tail flick test; format: functional
[11] = tested on: Rattus norvegicus; assay: Antihypertensive activity in spontaneously hypertensive rat model assessed as reduction in blood pressure at 3 mg/kg, po after 24 hrs; format: functional; design: scale not given: the % may be the effect or the level left
[12] = tested on: Rattus norvegicus; assay: Antihypertensive activity in spontaneously hypertensive rat model assessed as reduction in blood pressure at 1 mg/kg, po after 3 hrs; format: functional; design: scale not given: the % may be the effect or the level left
[13] = tested on: Rattus norvegicus; assay: Antihypertensive activity in spontaneously hypertensive rat model assessed as reduction in blood pressure at 1 mg/kg, po after 24 hrs; format: functional; design: scale not given: the % may be the effect or the level left
[14] = tested on: Rattus norvegicus; assay: Antisecretory activity in Sprague-Dawley rat assessed as decrease in acid output at 5 mg/kg, po administered 30 mins prior to pylorus ligation measured after 4 hrs relative to control; format: functional; design: scale not given: the % may be the effect or the level left
[15] = tested on: Rattus norvegicus; assay: Antiulcer activity in albino Sprague-Dawley rat stress ulcer model assessed as prevention of stress-induced gastric lesions at 5 mg/kg, po administered 30 mins prior to stress measured after 4 hrs relative to vehicle-treated control; format: functional, Stomach
[16] = tested on: Rattus norvegicus; assay: Antisecretory activity in Sprague-Dawley rat assessed as decrease in acidity at 2.5 mg/kg, po administered 30 mins prior to pylorus ligation measured after 4 hrs relative to control; format: functional; design: scale not given: the % may be the effect or the level left
[17] = tested on: Rattus norvegicus; assay: Increase in pepsin concentration in Sprague-Dawley rat at 10 mg/kg, po administered 30 mins prior to pylorus ligation measured after 4 hrs relative to control; format: functional
[18] = tested on: Rattus norvegicus; assay: Antisecretory activity in Sprague-Dawley rat assessed as decrease in acidity at 10 mg/kg, po administered 30 mins prior to pylorus ligation measured after 4 hrs relative to control; format: functional; design: scale not given: the % may be the effect or the level left
[19] = tested on: Rattus norvegicus; assay: Antisecretory activity in Sprague-Dawley rat assessed as decrease in acidity at 5 mg/kg, po administered 30 mins prior to pylorus ligation measured after 4 hrs relative to control; format: functional; design: scale not given: the % may be the effect or the level left
[20] = tested on: Rattus norvegicus; assay: Increase in pepsin concentration in Sprague-Dawley rat at 5 mg/kg, po administered 30 mins prior to pylorus ligation measured after 4 hrs relative to control; format: functional
[21] = tested on: Rattus norvegicus; assay: Antiulcer activity in albino Sprague-Dawley rat reserpine ulcer model assessed as prevention of reserpine-induced gastric lesions by measuring ulcer index scores at 10 mg/kg, po administered 30 mins prior to reserpine challenge measured after 6 hrs; format: functional, Stomach
[22] = tested on: Rattus norvegicus; assay: Antisecretory activity in Sprague-Dawley rat assessed as decrease in pepsin output at 1 mg/kg, po administered 30 mins prior to pylorus ligation measured after 4 hrs relative to control; format: functional; design: scale not given: the % may be the effect or the level left
[23] = tested on: Rattus norvegicus; assay: Antiulcer activity in albino Sprague-Dawley rat shay ulcer model assessed as ulcer index scores at 10 mg/kg administered intraduodenally post pyloric ligation measured after 18.5 hrs relative to vehicle-treated control; format: functional; details: route intraduodenal
[24] = tested on: Rattus norvegicus; assay: Antiulcer activity in albino Sprague-Dawley rat shay ulcer model assessed as ulcer index scores at 5 mg/kg administered intraduodenally post pyloric ligation measured after 18.5 hrs relative to vehicle-treated control; format: functional; details: route intraduodenal
[25] = tested on: Rattus norvegicus; assay: Antiulcer activity in albino Sprague-Dawley rat stress ulcer model assessed as prevention of stress-induced gastric lesions by measuring ulcer index score at 10 mg/kg, po administered 30 mins prior to stress measured after 4 hrs; format: functional, Stomach
[26] = tested on: Rattus norvegicus; assay: Antisecretory activity in Sprague-Dawley rat assessed as decrease in pepsin output at 10 mg/kg, po administered 30 mins prior to pylorus ligation measured after 4 hrs relative to control; format: functional; design: scale not given: the % may be the effect or the level left
[27] = tested on: Rattus norvegicus; assay: Antisecretory activity in Sprague-Dawley rat assessed as decrease in acid output at 10 mg/kg, po administered 30 mins prior to pylorus ligation measured after 4 hrs relative to control; format: functional; design: scale not given: the % may be the effect or the level left
[28] = tested on: Rattus norvegicus; assay: Antisecretory activity in Sprague-Dawley rat assessed as decrease in acid output at 2.5 mg/kg, po administered 30 mins prior to pylorus ligation measured after 4 hrs relative to control; format: functional; design: scale not given: the % may be the effect or the level left
[29] = tested on: Rattus norvegicus; assay: Increase in pepsin concentration in Sprague-Dawley rat at 2.5 mg/kg, po administered 30 mins prior to pylorus ligation measured after 4 hrs relative to control; format: functional
[30] = tested on: Rattus norvegicus; assay: Antisecretory activity in Sprague-Dawley rat assessed as decrease in volume at 5 mg/kg, po administered 30 mins prior to pylorus ligation measured after 4 hrs relative to control; format: functional; design: scale not given: the % may be the effect or the level left
[31] = tested on: Rattus norvegicus; assay: Antisecretory activity in Sprague-Dawley rat assessed as decrease in volume at 1 mg/kg, po administered 30 mins prior to pylorus ligation measured after 4 hrs relative to control; format: functional; design: scale not given: the % may be the effect or the level left
[32] = tested on: Rattus norvegicus; assay: Antisecretory activity in Sprague-Dawley rat assessed as decrease in volume at 10 mg/kg, po administered 30 mins prior to pylorus ligation measured after 4 hrs relative to control; format: functional; design: scale not given: the % may be the effect or the level left
[33] = tested on: Rattus norvegicus; assay: Antisecretory activity in Sprague-Dawley rat assessed as decrease in pepsin output at 2.5 mg/kg, po administered 30 mins prior to pylorus ligation measured after 4 hrs relative to control; format: functional; design: scale not given: the % may be the effect or the level left
[34] = tested on: Rattus norvegicus; assay: Antiulcer activity in albino Sprague-Dawley rat reserpine ulcer model assessed as prevention of reserpine-induced gastric lesions by measuring ulcer index scores at 5 mg/kg, po administered 30 mins prior to reserpine challenge measured after 6 hrs; format: functional, Stomach
[35] = tested on: Rattus norvegicus; assay: Antisecretory activity in Sprague-Dawley rat assessed as decrease in acidity at 1 mg/kg, po administered 30 mins prior to pylorus ligation measured after 4 hrs relative to control; format: functional; design: scale not given: the % may be the effect or the level left
[36] = tested on: Rattus norvegicus; assay: Antisecretory activity in Sprague-Dawley rat assessed as decrease in pepsin output at 5 mg/kg, po administered 30 mins prior to pylorus ligation measured after 4 hrs relative to control; format: functional; design: scale not given: the % may be the effect or the level left
[37] = tested on: Rattus norvegicus; assay: Antisecretory activity in Sprague-Dawley rat assessed as decrease in volume at 2.5 mg/kg, po administered 30 mins prior to pylorus ligation measured after 4 hrs relative to control; format: functional; design: scale not given: the % may be the effect or the level left
[38] = tested on: Rattus norvegicus; assay: Antisecretory activity in Sprague-Dawley rat assessed as decrease in acid output at 1 mg/kg, po administered 30 mins prior to pylorus ligation measured after 4 hrs relative to control; format: functional; design: scale not given: the % may be the effect or the level left
[39] = tested on: Rattus norvegicus; assay: Increase in pepsin concentration in Sprague-Dawley rat at 1 mg/kg, po administered 30 mins prior to pylorus ligation measured after 4 hrs relative to control; format: functional
[40] = tested on: Rattus norvegicus; assay: Analgesic activity in Sprague-Dawley rat assessed as increase in pain threshold at 20 mg/kg, po after 15 to 90 mins by tail flick test; format: functional
[41] = tested on: Rattus norvegicus; assay: Antianxiety activity in Long-Evans rat assessed as reduction in motor activity at 10 mg/kg, po after 2 hrs relative to vehicle-treated control; format: functional; design: scale not given: the % may be the effect or the level left
[42] = tested on: Rattus norvegicus; assay: Antipsychotic activity in rat assessed as reduction of methamphetamine-induced hyperactivity at 10 mg/kg, po administered prior to methamphetamine challenge relative to vehicle-treated control; format: functional; design: scale not given: the % may be the effect or the level left
[43] = tested on: Rattus norvegicus; assay: Antipsychotic activity in rat assessed as reduction of methamphetamine-induced hyperactivity at 20 mg/kg, po administered prior to methamphetamine challenge relative to vehicle-treated control; format: functional; design: scale not given: the % may be the effect or the level left
[44] = tested on: Rattus norvegicus; assay: Analgesic activity in po dosed Sprague-Dawley rat after 15 to 90 mins by tail flick test; format: functional
[45] = tested on: Rattus norvegicus; assay: Antianxiety activity in Long-Evans rat assessed as reduction in motor activity at 40 mg/kg, po after 2 hrs relative to vehicle-treated control; format: functional; design: scale not given: the % may be the effect or the level left
[46] = tested on: Mus musculus; assay: Analgesic activity in mouse assessed as inhibition of acetic acid-induced writhing at 20 mg/kg, po administered 30 mins prior to acetic acid challenge measured after 5 mins for 20 mins; format: functional
[47] = tested on: Rattus norvegicus; assay: Antipsychotic activity in rat assessed as reduction of methamphetamine-induced hyperactivity at 1 mg/kg, po administered prior to methamphetamine challenge relative to vehicle-treated control; format: functional; design: scale not given: the % may be the effect or the level left

What does the source list for `CC1CCC2=C(C1)c1c(O)cc(C(C)C(C)CCc3ccncc3)cc1OC2(C)C` (stereo not drawn)?
Activity [1]: 13%; Activity [2]: 28%; Activity [3]: 42%; inhibition in vivo at 0.5 mg/kg [4]: 90%; minimal effective dose [5]: 20 mg/kg; Activity [6]: 0%; Activity [7]: 19%; LD50 [8]: ≥ 1000 mg/kg; ED50 [9]: 4.7 mg/kg; Activity [10]: 58%; Activity [11]: 7%; Activity [12]: 13%; Activity [13]: 15%

For `Cl.NC(=S)Cc1ccccn1`, which Activity [14] is on record?
The Activity was 81.8%.

What about the UI [15] of the same compound?
Its UI is 0.4.

And the Activity [16]?
The Activity was 17.4%.

And the Activity [17]?
The Activity was 45.8%.

And the Activity [18]?
Its Activity is 86.3%.

And the Activity [19]?
The Activity was 49.8%.

What about the Activity [20] of the same compound?
The Activity was 92.6%.

And the UI [21]?
The UI was 0.

And the Activity [22]?
Its Activity is 19%.

And the UI [23]?
Its UI is 0.7.

What about the UI [24] of the same compound?
Its UI is 3.3.

What about the UI [25] of the same compound?
The UI was 0.

What about the Activity [26] of the same compound?
Its Activity is 58.9%.

And the Activity [27]?
Its Activity is 95.5%.

And the Activity [28]?
Its Activity is 47.3%.

What about the Activity [29] of the same compound?
Its Activity is 43.1%.

What about the Activity [30] of the same compound?
The Activity was 64%.

And the Activity [31]?
Its Activity is 33.1%.

And the Activity [32]?
The Activity was 76.7%.

What about the Activity [33] of the same compound?
The Activity was 8.4%.

What about the UI [34] of the same compound?
Its UI is 0.1.

And the Activity [35]?
The Activity was 3.8%.

What about the Activity [36] of the same compound?
The Activity was 31%.

And the Activity [37]?
The Activity was 35.8%.

And the Activity [38]?
Its Activity is 35.5%.

What about the Activity [39] of the same compound?
The Activity was 29.3%.

What does the source list for `CN(C)CCCN1c2ccccc2Sc2ccc(Cl)cc21` [CHLORPROMAZINE]?
Activity [1]: 11%; Activity [40]: 37%; Activity [6]: 79%; Activity [41]: 76%; ED50 [9]: 2.4 mg/kg; Activity [42]: 83%; Activity [43]: 93%

With `C#CCN1CCC2=C(C1)c1c(OC(C)=O)cc(C(C)CCCc3ccc(F)cc3)cc1OC2(C)C` (stereo not drawn) as the compound, how does the Activity [1] read?
Its Activity is 66%.

What about the ED50 [44] of the same compound?
The ED50 was 1 mg/kg.

And the Activity [3]?
The Activity was 57%.

What about the Activity [45] of the same compound?
The Activity was 90%.

And the inhibition in vivo at 20 mg/kg [46]?
Its inhibition in vivo at 20 mg/kg is 27%.

What about the LD50 [8] of the same compound?
Its LD50 is ≥ 1000 mg/kg.

And the Activity [47]?
Its Activity is 30%.
